Test results taken from patent US7375222B2, “2,4,6-Triamino-1,3,5-triazine derivative” (Astellas Pharma Inc., priority 2002, dated 2008).

What was measured:
BEC 1 potassium channel = target: T1, BEC 1 potassium channel (Homo sapiens, UniProt Q9ULD8); experiment: BEC 1 inhibitory activity using released amount of 86Rb ions from BEC 1-expressing cells; format: cell-based; conditions: 86Rb ion release, BEC 1-stably expressing CHO (dhfr-deficient) cell, 100 mM KCl stimulation; read-out: BEC1 IC50
T1 construct: expressed in transfected cells
T1 sequence (Q9ULD8 1-1083): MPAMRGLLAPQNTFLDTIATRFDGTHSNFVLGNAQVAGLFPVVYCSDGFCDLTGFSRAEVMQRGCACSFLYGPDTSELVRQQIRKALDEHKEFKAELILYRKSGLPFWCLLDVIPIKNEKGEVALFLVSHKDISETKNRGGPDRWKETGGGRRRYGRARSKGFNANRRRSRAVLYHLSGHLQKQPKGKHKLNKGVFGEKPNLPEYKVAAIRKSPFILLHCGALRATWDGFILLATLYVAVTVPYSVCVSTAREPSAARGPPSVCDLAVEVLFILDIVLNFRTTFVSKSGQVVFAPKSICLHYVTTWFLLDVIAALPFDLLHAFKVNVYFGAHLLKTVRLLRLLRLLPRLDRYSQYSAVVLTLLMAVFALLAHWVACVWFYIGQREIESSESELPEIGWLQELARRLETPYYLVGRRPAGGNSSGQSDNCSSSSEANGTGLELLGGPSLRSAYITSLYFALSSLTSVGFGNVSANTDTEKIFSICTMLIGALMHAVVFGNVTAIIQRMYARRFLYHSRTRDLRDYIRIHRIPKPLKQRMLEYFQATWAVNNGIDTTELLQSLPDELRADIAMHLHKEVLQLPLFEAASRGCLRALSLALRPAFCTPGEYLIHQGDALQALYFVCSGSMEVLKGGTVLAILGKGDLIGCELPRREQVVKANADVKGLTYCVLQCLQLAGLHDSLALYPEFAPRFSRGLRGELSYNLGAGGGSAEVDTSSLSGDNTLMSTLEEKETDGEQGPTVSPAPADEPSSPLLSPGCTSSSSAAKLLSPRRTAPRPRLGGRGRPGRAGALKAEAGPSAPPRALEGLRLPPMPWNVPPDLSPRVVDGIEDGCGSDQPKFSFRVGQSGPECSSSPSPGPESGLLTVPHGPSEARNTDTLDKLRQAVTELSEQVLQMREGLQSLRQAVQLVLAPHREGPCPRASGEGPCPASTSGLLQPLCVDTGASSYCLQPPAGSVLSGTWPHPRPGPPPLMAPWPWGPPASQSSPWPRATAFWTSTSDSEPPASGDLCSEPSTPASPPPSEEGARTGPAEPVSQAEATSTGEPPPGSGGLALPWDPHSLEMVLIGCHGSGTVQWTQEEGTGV
Description: In general, the potassium channel can pass Rb^+ ion similar to K^+ ion, so that the channel activity can be measured using release of a radioisotope ^86Rb^+ as a marker. By incubating cells expressing the novel potassium channel protein together with ^86RbCl (e.g., 18 hr, 37° C.), ^86Rb^+ can be incorporated into the cells. The cells are washed with a low K^+ concentration physiological saline (e.g., 4.5 mM K^+) and then suspended in the same solution. When a high K^+ concentration solution (e.g., 100 mM in final concentration) is added to the cell suspension, membrane potential of the cell is depolarized and the potassium channel therefore is activated. As a result, the intracellular ^86Rb^+ is released into the extracellular part, thus radioactivity of the extracellular solution can be used as a marker of the channel activity. It is possible to screen a compound and a peptide capable of modifying activity of the BEC 1 potassium channel protein, by comparing the radioactivity released into the extracellular part when the high K^+ concentration solution is added in the presence and absence of each drug to be tested.
Method for Measuring BEC 1 Inhibitory Activity of Compounds Using Released Amount of ^86Rb ions as the Index
The channel activity of BEC 1 was measured in accordance with the method described in WO 99/37677, using amount of a radioisotope ^86Rb ion released from a BEC 1-expressing cell as the index. That is, when an ^86Rb ion-incorporated BEC 1-expressing cell was stimulated with 100 mM KCl, the radioactivity released from the cell was used as the channel activity of BEC 1. The ^86Rb ions were incorporated into a BEC 1-stably expressing cell by culturing the cell (3 hours, 37° C.) in the presence of ^86RbCl (0.5 μCi/ml), and the un-incorporated ^86Rb ions were removed by washing three times with HEPES-buffered saline (pH 7.4, 2.5 mM KCl). The cells were incubated with HEPES-buffered saline containing a compound to be tested at room temperature for 15 minutes and then further incubated with 100 mM KCl-containing HEPES-buffered saline (pH 7.4) containing the compound to be tested at room temperature for 5 minutes. The extracellular medium was recovered, and then the remaining cells were lysed with 0.1 N NaOH and recovered.
The Cerenkov radioactivity of the extracellular medium and cell lysate was respectively measured, and their total was used as the total radioactivity. The released amount of ^86Rb ions was expressed by the percentage of extracellular medium radioactivity based on the total radioactivity. The value obtained in the presence of the compound was used as a test value, and the value obtained in the absence of the compound as a control value and the value obtained when not stimulated with 100 mM KCl as a blank value. Inhibitory action of each compound was expressed by % inhibition, namely (control value−test value)×100/(control value−blank value), or by an IC50 value calculated from the % inhibition. As the test results of typical compounds are shown in the following Tables 2 and 3, it was confirmed that said compounds have the BEC 1 potassium channel inhibitory action.
In this connection, as the BEC 1-expressing cell, a BEC 1-stably expressing cell prepared in accordance with the method described in WO 99/37677 using a dihydrofolate reductase (dhfr)-deficient strain of a Chinese hamster ovary cell was used.

ECS-induced amnesia = experiment: Electroconvulsive shock (ECS)-induced amnesia, mouse passive avoidance task; format: in vivo
Description: Electricity Chorea Shock (ECS)-Induced Learning Disorder (Mouse Passive Evasion Reaction Test) The evaluation was carried out in the following manner with reference to a report (Eur. J. Pharmacology, 321; 273-278, 1997). Animals; Male ddy mice (SLC, five weeks of age at the time of the training) were used. Arranged into 31 or 32 animals per group. A compound to be evaluated was suspended in a solution prepared by dissolving methyl cellulose in physiological saline to a concentration of 0.5% (hereinafter, 0.5% methyl cellulose solution). The administration volume was set to 10 ml per 1 kg body weight. As a placebo of the compound to be evaluated, 10 ml of the 0.5% methyl cellulose solution per 1 kg body weight (hereinafter, vehicle) was administered. (2) Each mouse was put into the light compartment of a passive avoidance task apparatus and allowed to stand for 30 seconds. Thereafter, the Guillotine door was opened. […] (3) A period of time until the mouse crossed a sensor in the dark compartment after opening the Guillotine door (step-through latency) was recorded. […] Effect of the compound on ECS-induced amnesia was evaluated by comparison between a step-through latency of (ECS+vehicle administration) group and a that of (ECS+evaluation compound administration) group. Data were analyzed using two-tailed steel test. […]

Fc1ccc(Nc2nc(NCc3ccnc(F)c3)nc(Nc3ccccc3)n2)cc1 [Example 744]
IC50 (BEC 1 potassium channel): 85 nM
minimum effective dose (step-through latency) (ECS-induced amnesia; intraperitoneally administered, male ddy mice, test 24 hours after training): 3 mg/kg
effect on ECS-induced amnesia (ECS-induced amnesia; mouse passive avoidance task): shows the improving effect
